According to patent US20240300940A1, “Phenothiazinyl Compounds and Uses” (Prosetta Biosciences, Inc., priority 2023, published 2024):

Experiments:
E. coli ATCC25922 = assay: MIC assay, serial dilution; details: for MIC: Escherichia coli, ATCC25922, read-out: Anti-bacterial Activity (E. coli MIC (uM)), E. coli, Table 5
Hennes-20 cells = assay: Hennes-20 oncology screen; format: cell-based; details: 72 h, alamar Blue
Experimental: To screen compounds for oncology activity Hennes-20 cells were plated at low (500 cells/well) versus high (15,000 cells/well) densities and treated with DMSO (vehicle) or dose-titration of compounds. The rationale for this screen is that an intrinsically toxic compound should kill cells regardless of density, including in Hennes-20 cells. However, a compound that selectively triggers the arrest of proliferation will inhibit cell growth when plated at a low density will appear cytotoxic due to inhibition of cell growth when plated at a low density but will appear non-toxic to cells plated at a high density where the cells are approaching confluence and the readout detected by a cell viability assay is already close to the maximum.
To conduct the Hennes-20 screen, two 96 well plates were seeded with Hennes 20 cells in parallel where one was plated at a density of 500 cells/well and the other was plated at a density of 15,000 cells/well. 90 uL of minimum essential media was added to each well and plates were placed in a 37 degrees Celsius incubator for 24 hours. The next day, 10 ul of media containing dilutions of compound in DMSO were added to each plate. Six wells on each plate received 10 ul of media containing only DMSO. Each well was gently mixed 5 times with a 100 ul pipette. Plates were incubated at 37 degrees Celsius for 72 hours and then 10 uL of alamar Blue was added to each well. Wells were mixed 5 times then incubated at 37 degrees Celsius for […]. Plates were then read at 530/590.
The rationale for the screen is as follows: Hennes-20 cells lack endogenous apoptosis. Cells plated at low density will proliferate and approach confluence in 72 hrs. A drug that arrests proliferation may have its proliferation blocking effect masked by the triggering of endogenous apoptosis. However, in the Hennes line, lacking endogenous apoptosis, such an arrest is manifest as a dose-dependent maintenance at low cell density. Since the high-density cells are plated close to confluence, the difference between Alamar Blue cell survival readings after 72 hrs reflects the ability of the drug to block proliferation in the low density-plated cells. In the high density-plated cells any diminution of Alamar Blue readout vs vehicle control is due to intrinsic toxicity, not proliferation arrest, since cells were already at confluence. Thus, a compound that appears toxic (low Alamar Blue readings after 72 hrs) on the low-density plate, but which appears non-toxic (high Alamar Blue readings after 72 hrs) on the high-density plate, must be arresting proliferation, since intrinsic compound toxicity should be observed at both low and high cell densities, not selectively on the low-density plate.

| SMILES | MIC (E. coli ATCC25922) [µM] | EC50 (Hennes-20 cells) [nM] | Anti-bacterial Activity (E. coli MIC (uM)) (E. coli ATCC25922; E. coli, Table 5) [µM] |
| --- | --- | --- | --- |
| FC1(F)C2CN(c3ccc4nc5ccc(N6CC7C(C6)C7(F)F)cc5[s+]c4c3)CC21 (centres unmarked) [Compound 2] | 1.6 | – | – |
| c1cc2nc3ccc(N4CC5CC5C4)cc3[s+]c2cc1N1CC2CC2C1 (centres unmarked) [Compound 3] | 1.6 | – | – |
| CC1(C)C2CN(c3ccc4nc5c(N6CCCC6)cc(N6CC7C(C6)C7(C)C)cc5[s+]c4c3)CC21 (centres unmarked) [Compound 4] | 3.1 | 500 | – |
| CC1(C)C2CN(c3ccc4nc5c(F)cc(N6CC7C(C6)C7(C)C)cc5[s+]c4c3)CC21 (centres unmarked) [Compound 5] | 6.25 | < 100 | – |
| CC1(C)C2CN(c3ccc4nc5c(N6CC7C(C6)C7(C)C)cc(N6CC7C(C6)C7(C)C)cc5[s+]c4c3)CC21 (centres unmarked) [Compound 6] | 6.3 | 500 | – |
| CC1(C)C2CN(c3ccc4nc5cc(CN)c(N6CC7C(C6)C7(C)C)cc5[s+]c4c3)CC21 (centres unmarked) [Compound 7] | 6.3 | – | – |
| CC(C)(C)OC(=O)NCc1cc2nc3ccc(N4CC5C(C4)C5(C)C)cc3[s+]c2cc1N1CC2C(C1)C2(C)C (centres unmarked) [Compound 8] | 6.3 | < 2500 | – |
| CC1(C)C2CN(c3ccc4nc5cc(Cl)c(N6CC7C(C6)C7(C)C)cc5[s+]c4c3)CC21 (centres unmarked) [Compound 9] | 12.5 | 500 | – |
| CCc1cc(N2CC3C(C2)C3(C)C)cc2[s+]c3cc(N4CC5C(C4)C5(C)C)cc(CC)c3nc12 (centres unmarked) [Compound 10] | 6.25 | < 500 | – |
| Cc1cc(N2CC3C(C2)C3(C)C)cc2[s+]c3cc(N4CC5C(C4)C5(C)C)cc(C)c3nc12 (centres unmarked) [Compound 11] | 6.25 | < 500 | – |
| CCc1cc(N2CC3C(C2)C3(C)C)cc2[s+]c3cc(N4CC5C(C4)C5(C)C)cc(C)c3nc12 (centres unmarked) [Compound 12] | 6.25 | < 500 | – |
| CC1(C)C2CN(c3cc(F)c4nc5c(F)cc(N6CC7C(C6)C7(C)C)cc5[s+]c4c3)CC21 (centres unmarked) [Compound 13] | 12.5 | 2500 | – |
| Cc1cc(N2CC3C(C2)C3(C)C)cc2[s+]c3c(F)c(N4CC5C(C4)C5(C)C)cc(C)c3nc12 (centres unmarked) [Compound 14] | 6.25 | < 500 | – |
| CC1(C)C2CN(c3ccc4nc5c(Cl)cc(N6CC7C(C6)C7(C)C)cc5[s+]c4c3)CC21 (centres unmarked) [Compound 15] | 12.5 | 2500 | – |
| c1cc2nc3ccc(N4CCC5(CCC5)C4)cc3[s+]c2cc1N1CCC2(CCC2)C1 [Compound 17] | 3.1 | – | – |
| c1ccc2c(c1)Sc1ccccc1N2c1ccc2nc3c(N4CCCC4)cc(N4CCCC4)cc3[s+]c2c1 [Compound 19] | 12.5 | – | – |
| c1cc2nc3c(N4CCCC4)cc(N4CCCC4)cc3[s+]c2cc1N1CCCC1 [Compound 20] | 0.8 | 500 | – |
| Cc1cc(N2CCCC2)cc2[s+]c3c(F)c(N4CCCC4)cc(C)c3nc12 [Compound 21] | 1.6 | < 500 | – |
| c1cc2nc3ccc(N4CCCCCC4)cc3[s+]c2cc1N1CCCCCC1 [Compound 22] | 1.6 | < 500 | – |
| CC1(C)C2CN(c3cc(N4CCCC4)cc4[s+]c5cc(N6CCCC6)ccc5nc34)CC21 (centres unmarked) [Compound 23] | 1.6 | < 500 | – |
| CC(C)(C)OC(=O)NCc1cc2nc3ccc(N4CCCC4)cc3[s+]c2cc1N1CCCC1 [Compound 24] | 1.6 | < 2500 | – |

| SMILES | MIC (E. coli ATCC25922) [µM] | EC50 (Hennes-20 cells) [nM] | Anti-bacterial Activity (E. coli MIC (uM)) (E. coli ATCC25922; E. coli, Table 5) [µM] |
| --- | --- | --- | --- |
| NCc1cc2nc3ccc(N4CCCC4)cc3[s+]c2cc1N1CCCC1 [Compound 27] | 12.5 | – | – |
| CC1(C)CCCN1c1ccc2nc3ccc(N4CCCCCC4)cc3[s+]c2c1 [Compound 28] | 12.5 | – | – |
| c1cc2nc3ccc(N4CCC4)cc3[s+]c2cc1N1CCC1 [Compound 29] | 25 | < 2500 | – |
| CC1(C)C2CN(c3ccc4nc5ccc(N6CCCCCC6)cc5[s+]c4c3)CC21 (centres unmarked) [Compound 30, 3-[6,6-dimethyl-3-azabicyclo[3.1.0]hexan-N-yl]-7-(azepan-1-yl) phenothiazinium iodide] | 0.8 | – | – |
| CN(C)c1ccc2nc3ccc(N4CC5C(C4)C5(C)C)cc3[s+]c2c1 (centres unmarked) [Compound 31] | 1.6 | < 2500 | – |
| CC(C)(C)OC(=O)NC1CCN(c2ccc3nc4ccc(N5CC6C(C5)C6(C)C)cc4[s+]c3c2)C1 (centres unmarked) [Compound 32] | 6.25 | – | – |
| Cc1cc(N(C)C)cc2[s+]c3cc(N4CCCC4)cc(C)c3nc12 [Compound 33] | 1.6 | – | – |
| CN(C)c1ccc2nc3ccc(N4CCCC4)cc3[s+]c2c1 [Compound 35] | 12.5 | 500 | – |
| CCc1cccc2[s+]c3cc(N4CCCC4)ccc3nc12 [Compound 37] | 6.3 | – | – |
| c1cc(N2CCCC2)c2nc3ccc(N4CCCC4)cc3[s+]c2c1 [Compound 38] | 6.3 | 2500 | – |
| CCc1cc(N2CCCC2)cc2[s+]c3cc(N4CCCC4)cc(CC)c3nc12 [Compound 39] | 3.1 | – | – |
| Cc1cc(N2CCCC2)cc2[s+]c3cc(N4CCCC4)cc(C)c3nc12 [Compound 40] | 1.6 | – | – |
| CC(C)c1cc(N2CCCC2)cc2[s+]c3cc(N4CCCC4)ccc3nc12 [Compound 41] | 1.6 | < 500 | – |
| Clc1cc(N2CCCC2)cc2[s+]c3cc(N4CCCC4)cc(Cl)c3nc12 [Compound 42] | 1.6 | < 12500 | – |
| Fc1cc(N2CCCC2)cc2[s+]c3cc(N4CCCC4)ccc3nc12 [Compound 43] | 3.1 | 500 | – |
| Fc1cc(N2CCCC2)cc2[s+]c3cc(N4CCCC4)cc(F)c3nc12 [Compound 44] | 6.3 | – | – |
| c1ccc(C2CCN(c3ccc4nc5ccc(N6CCC(c7ccccc7)C6)cc5[s+]c4c3)C2)cc1 (centres unmarked) [Compound 47] | 3.1 | – | – |
| FC(F)(F)C1CCCN1c1ccc2nc3ccc(N4CCCC4C(F)(F)F)cc3[s+]c2c1 (centres unmarked) [Compound 48] | 3.1 | – | – |
| CC(C)(C)OC(=O)NCC1CCCN1c1ccc2nc3ccc(N4CCCC4CNC(=O)OC(C)(C)C)cc3[s+]c2c1 (centres unmarked) [Compound 49] | 1.6 | < 2500 | – |
| CC(C)(C)OC(=O)NC1CCN(c2ccc3nc4ccc(N5CCC(NC(=O)OC(C)(C)C)C5)cc4[s+]c3c2)C1 (centres unmarked) [Compound 51] | 6.3 | – | – |
| CC1(C)CCCN1c1ccc2nc3ccc(N4CCCC4(C)C)cc3[s+]c2c1 [Compound 52] | 12.5 | – | – |

| SMILES | MIC (E. coli ATCC25922) [µM] | EC50 (Hennes-20 cells) [nM] | Anti-bacterial Activity (E. coli MIC (uM)) (E. coli ATCC25922; E. coli, Table 5) [µM] |
| --- | --- | --- | --- |
| FC1CCN(c2ccc3nc4ccc(N5CCC(F)C5)cc4[s+]c3c2)C1 (centres unmarked) [Compound 54] | 25 | – | – |
| CCc1cc(C(C)C)cc2[s+]c3cc(N(C)C)cc(CC)c3nc12 [Compound 60] | – | < 2500 | – |
| CC1C=CC(C)N1c1ccc2nc3ccc(N4C(C)C=CC4C)cc3[s+]c2c1 (centres unmarked) [Compound 61] | 25 | – | – |
| CCN(CC)c1cc(Br)c2nc3c(C(C)(C)C)cc(N(CC)CC)cc3[s+]c2c1 [Compound 63] | – | 2500 | – |
| CCc1cc(N2CCCC2)cc2[s+]c3cc(N4CCCC4)cc(C(C)C)c3nc12 [Compound 64] | – | – | 6.3 |
| COCCN(CCOC)c1ccc2nc3c(C(C)(C)C)cc(N(CCOC)CCOC)cc3[s+]c2c1 [Compound 67] | – | < 500 | – |
| CCCCc1cc(N2CCCC2)cc2[s+]c3cc(N4CCCC4)ccc3nc12 [Compound 70] | – | < 2500 | – |
| FC(F)(F)c1cc(N2CCCC2)cc2[s+]c3cc(N4CCCC4)ccc3nc12 [Compound 71] | – | < 2500 | – |
| FC(F)(F)c1cc(N2CCCC2)cc2[s+]c3cc(N4CCCC4)cc(N4CCCC4)c3nc12 [Compound 75] | – | < 2500 | – |
| COc1cc2nc3c(N4CCCC4)cc(N4CCCC4)cc3[s+]c2cc1N1CCCC1 [Compound 76] | – | < 2500 | – |
| N#Cc1cc(N2CCCC2)cc2[s+]c3cc(N4CCCC4)cc(N4CCCC4)c3nc12 [Compound 78] | – | < 2500 | – |
| Cc1cc(N2CCCC2)cc2[s+]c3cc(N4CCCC4)ccc3nc12 [Compound 79] | – | < 12500 | – |
| CCc1cc(N2CCCNCC2)cc2[s+]c3cc(N4CCCC4C)cc(CC)c3nc12 (centres unmarked) [Compound 81] | – | < 2500 | – |
| COc1cc2nc3ccc(N4CCCC4)cc3[s+]c2cc1N1CCCC1 [Compound 84] | – | < 12500 | – |
| CN1CCN(c2ccc3nc4c(C(C)(C)C)cc(N5CCN(C)CC5)cc4[s+]c3c2)CC1 [Compound 85] | – | 12500 | – |
| Clc1cc(N2CCCC2)cc2[s+]c3cc(N4CCCC4)ccc3nc12 [Compound 86] | – | < 500 | – |
| CC(C)(C)c1cc(N2CCOCC2)cc2[s+]c3cc(N4CCOCC4)ccc3nc12 [Compound 88] | – | 12500 | – |
| CC(C)(C)c1cc(N2CCCC2)cc2[s+]c3cc(N4CCC(C(=N)N)CC4)ccc3nc12 [Compound 89] | – | 12500 | – |
| CC(C)(C)c1cc(N2CCC(C(=N)N)CC2)cc2[s+]c3cc(N4CCC(C(=N)N)CC4)ccc3nc12 [Compound 90] | – | 12500 | – |
| CC(C)(C)c1cc(N2CCC(C(=N)N)CC2)cc2[s+]c3cc(N4CCCC4)ccc3nc12 [Compound 91] | – | > 12500 | – |
